Key:
IL-6 = assay: Acne model in mice: IL-6 level in left ear tissue; format: in vivo, Balb/C mice
Experimental: (§1) Experimental strain: Propionibacterium acnes ATCC 6919 (Beijing Biobw Biotechnology Co., Ltd.) Experimental animals: Balb/C mice (Zhejiang Vital River Laboratory Animal Technology Co., Ltd.) Balb/C mice were grouped and numbered, and adaptively fed for one week. On the day of modeling, Propionibacterium acnes was taken, and OD600 was measured using a microplate reader. BH1 culture medium was diluted to OD600=1 (about 5×10^8 CFU/mL), centrifuged to discard supernatant, and the remaining culture was diluted to 1×10^8 CFU/mL with PBS. Once the molding began, the mice were anesthetized with a small animal anesthesia machine, the air flow and isoflurane content of the anesthesia machine were adjusted, and the mice were placed in an anesthesia induction chamber for anesthesia induction. […] Mouse BCA protein detection: after Propionibacterium acnes was injected for 48 hours, the BCA protein detection was detected by using the BCA protein concentration assay kit. The left ear of mouse was homogenized with 1 mL of PBS and the dilution factor equivalent to a mass volume ratio of 1:9 was calculated, then centrifuged at 1500 g for 10 minutes. […] […] was measured with a microplate reader, the standard curves were plotted, and the BCA concentrations were calculated. […]

CXCL1/KC = assay: Acne model in mice: CXCL1 level in left ear tissue; format: in vivo, Balb/C mice
Experimental: as §1

[1] = Balb/C mice, left ear homogenate, 48 hours after injection of Propionibacterium acnes, 15 μL applied at 4, 20, 28, 44 hours, drugs as hydrochloride
[2] = compared with acne model group, p<0.001, in words

`CN(C)c1cc2c(cn1)-c1ccc3c(=O)c(C(=O)O)cn(C4CC4)c3c1COC2` [Compound 6] was tested, and the “IL-6 Mean ± SD” value (IL-6; [1]) was 322.4 ± 43.33 pg/mg, the “IL-6 content in the left ear tissues of mice after treatment” value (IL-6; [2]) was “significantly reduced” and the “CXCL1 Mean ± SD” value (CXCL1/KC; [1]) was 191.5 ± 32.71 pg/mg. The “CXCL1 content in the left ear tissues of mice after treatment” value (CXCL1/KC; [2]) was “significantly reduced”.

— patent US20250042912A1, “NOVEL NON-FLUORINATED QUINOLONE COMPOUND AND USE THEREOF” (priority 2021, published 2025)
